# Measured values as given in US9695155B2, “Herbicidal substituted pyrimidinyloxy benzene compounds” (E. I. DU PONT DE NEMOURS AND COMPANY, priority 2013, dated 2017).
# Legend:
# corn = assay: Test C preemergence; assay type: in vivo, Zea mays
# How it was run: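 Preemergence: seeds sown in a loam soil–sand blend and sprayed with test chemical in a non-phytotoxic solvent mixture containing surfactant. Postemergence: plants at 2 to 18 cm (1- to 4-leaf stage) in peat-based medium, treated with the same formulation. Greenhouse 13 to 15 days, then visual rating 0 (no effect) to 100 (complete control).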
# soybean = assay: Test E preemergence; assay type: in vivo, Glycine max; conditions: for Soybean plant response rating: scale 0 to 100 (0 no effect, 100 complete control); for Plant response rating, Soybean: scale 0 to 100, 0 no effect, 100 complete control
# How it was run: (§1)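 Response was scored visually on a 0-100 scale (100 = complete control) versus controls after 14 to 21 days in the greenhouse. Test chemicals, formulated with surfactant in a non-phytotoxic solvent mixture, had been applied preemergence to seeds in silt loam soil or postemergence to 1- to 4-leaf plants in potting medium.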
# velvetleaf = assay: Test E preemergence; assay type: in vivo, Abutilon theophrasti; conditions: for Velvetleaf plant response rating: scale 0 to 100 (0 no effect, 100 complete control); for Plant response rating, Velvetleaf: scale 0 to 100, 0 no effect, 100 complete control
# How it was run: as §1
# waterhemp = assay: Test E preemergence; assay type: in vivo, Amaranthus rudis; conditions: for Waterhemp plant response rating: scale 0 to 100 (0 no effect, 100 complete control); for Plant response rating, Waterhemp: scale 0 to 100, 0 no effect, 100 complete control
# How it was run: as §1
# Brazilian crabgrass = assay: Test E preemergence; assay type: in vivo, Digitaria horizontalis; conditions: for Crabgrass, Brazil plant response rating: scale 0 to 100 (0 no effect, 100 complete control); for Plant response rating, Crabgrass, Brazil: scale 0 to 100, 0 no effect, 100 complete control
# How it was run: as §1
# barnyardgrass = assay: Test E preemergence; assay type: in vivo, Echinochloa crus-galli; conditions: for Barnyardgrass plant response rating: scale 0 to 100 (0 no effect, 100 complete control); for Plant response rating, Barnyardgrass: scale 0 to 100, 0 no effect, 100 complete control
# How it was run: as §1
# Italian ryegrass = assay: Test E preemergence; assay type: in vivo, Lolium multiflorum; conditions: for Ryegrass, Italian plant response rating: scale 0 to 100 (0 no effect, 100 complete control); for Plant response rating, Ryegrass, Italian: scale 0 to 100, 0 no effect, 100 complete control
# How it was run: as §1
# dayflower = assay: Test E preemergence; assay type: in vivo, Commelina virginica; conditions: for Dayflower, VA plant response rating: scale 0 to 100 (0 no effect, 100 complete control); for Plant response rating, Dayflower, VA: scale 0 to 100, 0 no effect, 100 complete control
# How it was run: as §1
# field bindweed [1] = assay: Test E preemergence; assay type: in vivo, Convolvulus arvensis; conditions: for Field Bindweed plant response rating: scale 0 to 100 (0 no effect, 100 complete control); for Plant response rating, Field Bindweed: scale 0 to 100, 0 no effect, 100 complete control
# How it was run: as §1
# wild poinsettia = assay: Test E postemergence; assay type: in vivo, Euphorbia heterophylla
# How it was run: as §1
# palmer pigweed = assay: Test E postemergence; assay type: in vivo, Amaranthus palmeri
# How it was run: as §1
# field bindweed [2] = assay: Test E postemergence; assay type: in vivo, Convolvulus arvensis
# How it was run: as §1
# [3] = Postemergence, 31 g ai/ha, scale 0 to 100
# [4] = Postemergence, 62 g ai/ha, scale 0 to 100
# [5] = Postemergence, 125 g ai/ha, scale 0 to 100
# [6] = Postemergence, 250 g ai/ha, scale 0 to 100
# [7] = postemergence, 16 g ai/ha, scale 0 to 100, 0 no effect, 100 complete control
smiles,measurement,setting,value
"N#Cc1cccc(Oc2ncc(Cl)cn2)c1-n1cc(Br)cn1 [Compound 52, 2-(4-bromo-1H-pyrazol-1-yl)-3-[(5-chloro-2-pyrimidinyl)oxy]benzonitrile]",plant injury at 62 g/ha,"corn; Zea mays, pre-emergence, 62 g ai/ha, preemergence, scale 0 (no effect) to 100 (complete control), read-out: Corn plant response rating",5%
same,plant injury at 125 g/ha,"corn; Zea mays, pre-emergence, 125 g ai/ha, preemergence, scale 0 (no effect) to 100 (complete control), read-out: Corn plant response rating",60%
same,plant injury at 250 g/ha,"corn; Zea mays, pre-emergence, 250 g ai/ha, preemergence, scale 0 (no effect) to 100 (complete control), read-out: Corn plant response rating",70%
same,"Corn plant response rating (crop injury, 0 = no effect, 100 = complete kill) at 31 g/ha","corn; Zea mays, pre-emergence, Preemergence, 31 g ai/ha, scale 0 to 100, 0 no effect, 100 complete control",5%
same,Soybean plant response rating,soybean; 16 g ai/ha,0
same,Soybean plant response rating,soybean; 31 g ai/ha,0
same,Soybean plant response rating,soybean; 62 g ai/ha,0
same,"Plant response rating, Soybean",soybean; 125 g ai/ha,60
same,"Plant response rating, Soybean",soybean; 250 g ai/ha,90
same,Velvetleaf plant response rating,velvetleaf; 16 g ai/ha,0
same,Velvetleaf plant response rating,velvetleaf; 31 g ai/ha,0
same,Velvetleaf plant response rating,velvetleaf; 62 g ai/ha,75
same,"Plant response rating, Velvetleaf",velvetleaf; 125 g ai/ha,85
same,"Plant response rating, Velvetleaf",velvetleaf; 250 g ai/ha,90
same,Waterhemp plant response rating,waterhemp; 16 g ai/ha,80
same,Waterhemp plant response rating,waterhemp; 31 g ai/ha,100
same,Waterhemp plant response rating,waterhemp; 62 g ai/ha,100
same,"Plant response rating, Waterhemp",waterhemp; 125 g ai/ha,100
same,"Plant response rating, Waterhemp",waterhemp; 250 g ai/ha,100
same,"Crabgrass, Brazil plant response rating",Brazilian crabgrass; 16 g ai/ha,0
same,"Crabgrass, Brazil plant response rating",Brazilian crabgrass; 31 g ai/ha,90
same,"Crabgrass, Brazil plant response rating",Brazilian crabgrass; 62 g ai/ha,100
same,"Plant response rating, Crabgrass, Brazil",Brazilian crabgrass; 125 g ai/ha,100
same,"Plant response rating, Crabgrass, Brazil",Brazilian crabgrass; 250 g ai/ha,100
same,Barnyardgrass plant response rating,"barnyardgrass; 16 g ai/ha, preemergence",0
same,Barnyardgrass plant response rating,"barnyardgrass; 31 g ai/ha, preemergence",0
same,"Plant response rating, Barnyardgrass","barnyardgrass; Preemergence, 62 g ai/ha",30
same,"Plant response rating, Barnyardgrass","barnyardgrass; preemergence, 125 g ai/ha",75
same,"Plant response rating, Barnyardgrass","barnyardgrass; preemergence, 250 g ai/ha",98
same,"Ryegrass, Italian plant response rating",Italian ryegrass; 16 g ai/ha,0
same,"Ryegrass, Italian plant response rating",Italian ryegrass; 31 g ai/ha,0
same,"Ryegrass, Italian plant response rating",Italian ryegrass; 62 g ai/ha,0
same,"Plant response rating, Ryegrass, Italian",Italian ryegrass; 125 g ai/ha,60
same,"Plant response rating, Ryegrass, Italian",Italian ryegrass; 250 g ai/ha,90
same,"Dayflower, VA plant response rating",dayflower; 16 g ai/ha,0
same,"Dayflower, VA plant response rating",dayflower; 31 g ai/ha,0
same,"Dayflower, VA plant response rating",dayflower; 62 g ai/ha,5
same,"Plant response rating, Dayflower, VA",dayflower; 125 g ai/ha,70
same,"Plant response rating, Dayflower, VA",dayflower; 250 g ai/ha,98
same,Field Bindweed plant response rating,field bindweed [1]; 16 g ai/ha,0
same,Field Bindweed plant response rating,field bindweed [1]; 31 g ai/ha,0
same,Field Bindweed plant response rating,field bindweed [1]; 62 g ai/ha,25
same,"Plant response rating, Field Bindweed",field bindweed [1]; 125 g ai/ha,80
same,"Plant response rating, Field Bindweed",field bindweed [1]; 250 g ai/ha,95
same,pest or weed control at 31 g/ha,"wild poinsettia; Euphorbia heterophylla, post-emergence, Postemergence, 31 g ai/ha, scale 0 to 100, read-out: Plant response rating, Poinsettia, Wild",40%
same,pest or weed control at 62 g/ha,"wild poinsettia; Euphorbia heterophylla, post-emergence, Postemergence, 62 g ai/ha, scale 0 to 100, read-out: Plant response rating, Poinsettia, Wild",50%
same,pest or weed control at 125 g/ha,"wild poinsettia; Euphorbia heterophylla, post-emergence, Postemergence, 125 g ai/ha, scale 0 to 100, read-out: Plant response rating, Poinsettia, Wild",70%
same,pest or weed control at 16 g/ha,"wild poinsettia; Euphorbia heterophylla, post-emergence, postemergence, 16 g ai/ha, scale 0 to 100, 0 no effect, 100 complete control, read-out: Plant response rating, Poinsettia, Wild",45%
same,pest or weed control at 31 g/ha,"palmer pigweed; post-emergence, Postemergence, 31 g ai/ha, scale 0 to 100, read-out: Plant response rating, Pigweed, Palmer",70%
same,pest or weed control at 62 g/ha,"palmer pigweed; post-emergence, Postemergence, 62 g ai/ha, scale 0 to 100, read-out: Plant response rating, Pigweed, Palmer",95%
same,pest or weed control at 125 g/ha,"palmer pigweed; post-emergence, Postemergence, 125 g ai/ha, scale 0 to 100, read-out: Plant response rating, Pigweed, Palmer",95%
same,pest or weed control at 16 g/ha,"palmer pigweed; post-emergence, postemergence, 16 g ai/ha, scale 0 to 100, 0 no effect, 100 complete control, read-out: Plant response rating, Pigweed, Palmer",60%
same,pest or weed control at 31 g/ha,"field bindweed [2]; Convolvulus arvensis, post-emergence, Postemergence, 31 g ai/ha, scale 0 to 100, read-out: Plant response rating, Field Bindweed",50%
same,pest or weed control at 62 g/ha,"field bindweed [2]; Convolvulus arvensis, post-emergence, Postemergence, 62 g ai/ha, scale 0 to 100, read-out: Plant response rating, Field Bindweed",65%
same,pest or weed control at 125 g/ha,"field bindweed [2]; Convolvulus arvensis, post-emergence, Postemergence, 125 g ai/ha, scale 0 to 100, read-out: Plant response rating, Field Bindweed",65%
same,pest or weed control at 16 g/ha,"field bindweed [2]; Convolvulus arvensis, post-emergence, postemergence, 16 g ai/ha, scale 0 to 100, 0 no effect, 100 complete control, read-out: Plant response rating, Field Bindweed",50%
N#Cc1cnn(-c2c(C#N)cccc2Oc2ncc(Cl)cn2)c1 [Compound 200],Corn plant response rating,"corn; 125 g ai/ha, preemergence, scale 0 (no effect) to 100 (complete control)",60
same,Corn plant response rating,"corn; 250 g ai/ha, preemergence, scale 0 (no effect) to 100 (complete control)",75
same,"Plant response rating, Corn","corn; Preemergence, 62 g ai/ha, scale 0 to 100, 0 no effect, 100 complete control",5
same,Soybean plant response rating,soybean; 31 g ai/ha,25
same,Soybean plant response rating,soybean; 62 g ai/ha,35
same,"Plant response rating, Soybean",soybean; 125 g ai/ha,65
same,"Plant response rating, Soybean",soybean; 250 g ai/ha,90
same,Velvetleaf plant response rating,velvetleaf; 31 g ai/ha,35
same,Velvetleaf plant response rating,velvetleaf; 62 g ai/ha,80
same,"Plant response rating, Velvetleaf",velvetleaf; 125 g ai/ha,100
same,"Plant response rating, Velvetleaf",velvetleaf; 250 g ai/ha,100
same,Waterhemp plant response rating,waterhemp; 31 g ai/ha,100
same,Waterhemp plant response rating,waterhemp; 62 g ai/ha,100
same,"Plant response rating, Waterhemp",waterhemp; 125 g ai/ha,100
same,"Plant response rating, Waterhemp",waterhemp; 250 g ai/ha,100
same,"Crabgrass, Brazil plant response rating",Brazilian crabgrass; 16 g ai/ha,30
same,"Crabgrass, Brazil plant response rating",Brazilian crabgrass; 31 g ai/ha,85
same,"Crabgrass, Brazil plant response rating",Brazilian crabgrass; 62 g ai/ha,100
same,"Plant response rating, Crabgrass, Brazil",Brazilian crabgrass; 125 g ai/ha,100
same,"Plant response rating, Crabgrass, Brazil",Brazilian crabgrass; 250 g ai/ha,100
same,Barnyardgrass plant response rating,"barnyardgrass; 16 g ai/ha, preemergence",0
same,Barnyardgrass plant response rating,"barnyardgrass; 31 g ai/ha, preemergence",0
same,Barnyardgrass plant response rating,"barnyardgrass; 62 g ai/ha, preemergence",10
same,"Plant response rating, Barnyardgrass","barnyardgrass; preemergence, 125 g ai/ha",60
same,"Plant response rating, Barnyardgrass","barnyardgrass; preemergence, 250 g ai/ha",95
same,"Ryegrass, Italian plant response rating",Italian ryegrass; 31 g ai/ha,0
same,"Ryegrass, Italian plant response rating",Italian ryegrass; 62 g ai/ha,20
same,"Plant response rating, Ryegrass, Italian",Italian ryegrass; 125 g ai/ha,60
same,"Plant response rating, Ryegrass, Italian",Italian ryegrass; 250 g ai/ha,80
same,"Dayflower, VA plant response rating",dayflower; 16 g ai/ha,0
same,"Dayflower, VA plant response rating",dayflower; 31 g ai/ha,35
same,"Dayflower, VA plant response rating",dayflower; 62 g ai/ha,65
same,"Plant response rating, Dayflower, VA",dayflower; 125 g ai/ha,65
same,"Plant response rating, Dayflower, VA",dayflower; 250 g ai/ha,85
same,Field Bindweed plant response rating,field bindweed [1]; 16 g ai/ha,5
same,Field Bindweed plant response rating,field bindweed [1]; 31 g ai/ha,10
same,Field Bindweed plant response rating,field bindweed [1]; 62 g ai/ha,40
same,"Plant response rating, Field Bindweed",field bindweed [1]; 125 g ai/ha,70
same,"Plant response rating, Field Bindweed",field bindweed [1]; 250 g ai/ha,95
same,"Plant response rating, Poinsettia, Wild",wild poinsettia; [3],80
same,"Plant response rating, Poinsettia, Wild",wild poinsettia; [4],70
same,"Plant response rating, Poinsettia, Wild",wild poinsettia; [5],90
same,"Plant response rating, Poinsettia, Wild",wild poinsettia; [6],90
same,"Plant response rating, Poinsettia, Wild",wild poinsettia; [7],50
same,"Plant response rating, Pigweed, Palmer",palmer pigweed; [3],70
same,"Plant response rating, Pigweed, Palmer",palmer pigweed; [4],75
same,"Plant response rating, Pigweed, Palmer",palmer pigweed; [5],98
same,"Plant response rating, Pigweed, Palmer",palmer pigweed; [6],100
same,"Plant response rating, Pigweed, Palmer",palmer pigweed; [7],40
same,"Plant response rating, Field Bindweed",field bindweed [2]; [3],70
same,"Plant response rating, Field Bindweed",field bindweed [2]; [4],90
same,"Plant response rating, Field Bindweed",field bindweed [2]; [5],95
same,"Plant response rating, Field Bindweed",field bindweed [2]; [6],95
same,"Plant response rating, Field Bindweed",field bindweed [2]; [7],70
